IC50 data for 17 compounds are collected here from patent publication US20060079453A1, “Hla binding peptides and their uses” (priority 2002, published 2006).

pIC50: −log10 of the molar value. Read-outs that look alike come from different tables or passages of the source. No end group written: not given here.

What all share (experiment): biochemical
Holding throughout (assay type): binding

Assay [1] addresses HLA-DR DRB1*1101 (DR11) (Homo sapiens, UniProt P01903+P01911, A100R/A169T/A87E/I96F/K41T/L162R/M171V/P40S/Q125H/Q178H/Q39Y/Q99D/R42S/S66Y/T262R/V115G/W38E).
For assay [2], the target named is HLA-DR DRB1*1302 (DR13) (Homo sapiens, UniProt P01903+P01911, A100E/A169T/K41T/L162R/M171V/P40S/Q125H/Q178H/Q39Y/Q99D/R42S/S66N/T262R/V115G/W38E/Y61H).
The target in assay [3] is HLA-DR DRB1*1501 (DR15) (Homo sapiens, UniProt P01903+P01911).
Assay [4] deals with HLA-DR DRB3*0101 (DR52) (Homo sapiens, UniProt P01903+P79483).
For assay [5], the target named is HLA-DR DRB4*0101 (DR53) (Homo sapiens, UniProt P01903+P13762, G164S).
In assay [6] the target is HLA-DR DRB5*0101 (DR51) (Homo sapiens, UniProt P01903+Q30154).
Assay [7] concerns the target HLA-DR DRB1*0301 (DR3) (Homo sapiens, UniProt P01903+P01911, A100K/A102G/A103R/A169T/F55Y/I96L/K41T/L162R/M171V/P40S/Q125H/Q178H/Q39Y/R42S/S66N/T106N/T262R/W38E/Y61H).
Assay [8] addresses HLA-DR DRB1*0401 (DR4) (Homo sapiens, UniProt P01903+P01911, A100K/A169T/F76Y/I96L/K127E/L162R/M171V/N62H/P40V/Q125Y/R42H/S133A/S149N/S66Y/V115G/V209L/W38E). The settings on record: DRB1 *0401.
The target of assay [9] is HLA-DR DRB1*0701 (DR7) (Homo sapiens, UniProt P01903+P01911, A100R/A102G/A103Q/D57E/D86V/E43K/F76Y/K127E/L162R/M171V/P40G/Q125H/Q99D/R33Q/R42Y/R54Q/S133A/S66F/T210M/V115G/Y107V/Y59L/Y89S). The settings on record: DRB1 *0701.
In assay [10] the target is HLA-DR DRB1*0802 (DR8) (Homo sapiens, UniProt P01903+P01911, A100R/A103L/A169T/F76Y/H45Y/I96F/K41T/L162R/M171V/P40S/Q125H/Q178H/Q39Y/Q99D/R218S/R42G/S66Y/V115G/W38E).
Assay [11] deals with HLA-DR DRB1*0901 (DR9) (Homo sapiens, UniProt P01903+P01911, A100R/A103E/D57H/D86V/F55Y/F60I/F76Y/I96F/K127E/L162R/M171V/P40D/Q125H/Q99R/R33Q/R42F/S133A/S66N/T210M/V115G/W38K/Y107V/Y59G/Y89S). The settings on record: DRB1 *0901.

Sequence of HLA-DR DRB1*1302 (DR13) (P01903 26-254 limits assumed, other chains not shown): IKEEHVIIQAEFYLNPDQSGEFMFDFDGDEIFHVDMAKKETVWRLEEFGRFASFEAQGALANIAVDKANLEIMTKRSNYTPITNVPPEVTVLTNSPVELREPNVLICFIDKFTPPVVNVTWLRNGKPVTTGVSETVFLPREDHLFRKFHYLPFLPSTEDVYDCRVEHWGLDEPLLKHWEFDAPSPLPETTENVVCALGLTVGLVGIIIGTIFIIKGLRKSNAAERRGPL
Sequence of HLA-DR DRB1*1101 (DR11) (P01903 26-254 limits assumed, other chains not shown): as above
Sequence of HLA-DR DRB1*0301 (DR3) (P01903 26-254 limits assumed, other chains not shown): as above

On to VRVEILRNFYVINRL, for which the pIC50 was 6.30 in [1] (read-out: DRB1 *1101); 8.24 in assay [2] (read-out: DRBI *1302); 8.98 in assay [3] (read-out: DRBI *1501); 4.09 in assay [4] (read-out: DRB3 *0101); 6.73 in assay [5] (read-out: DRB4 *0101); 6.31 in assay [6] (read-out: DRB5 *0101).

As to `CC[C@H](C)[C@H](NC(=O)[C@H](CCC(=O)O)NC(=O)[C@H](CC(N)=O)NC(=O)CNC(=O)[C@H](CC(=O)O)NC(=O)[C@H](CCC(=O)O)NC(=O)[C@H](CC(N)=O)NC(=O)[C@@H](NC(=O)[C@@H](NC(=O)[C@H](CO)NC(=O)[C@@H](NC(=O)[C@@H](N)Cc1ccc(O)cc1)[C@@H](C)CC)[C@@H](C)CC)[C@@H](C)CC)C(=O)N[C@@H](Cc1ccccc1)C(=O)N[C@@H](CC(N)=O)C(=O)N[C@H](C(=O)O)[C@@H](C)O`, the pIC50 in [7] was 6.40; in assay [8] it was 6.20; in [9], 4.62; in assay [10], less than 3.91; in [11], 4.08; in assay [1] (DRB1 *1101) it was less than 4.72. For the same compound, the pIC50 was 6.46 in [2] (DRBI *1302), 5.57 in assay [3] (DRBI *1501), 5.43 in assay [5] (DRB4 *0101) and 4.14 in [6] (DRB5 *0101).

As for AVGLPSIPVHPIGYY, the pIC50 is 4.48 in assay [1] (read-out: DRB1 *1101); 6.29 in assay [3] (read-out: DRBI *1501); less than 4.93 in [4] (read-out: DRB3 *0101); 5.27 in [5] (read-out: DRB4 *0101); 4.41 in assay [6] (read-out: DRB5 *0101).

Turning to LGFLQRSSNTQTQKL, the pIC50 was 4.58 in assay [1] (read-out: DRB1 *1101), 7.68 in assay [2] (read-out: DRBI *1302), less than 2.76 in assay [4] (read-out: DRB3 *0101) and 6.47 in [6] (read-out: DRB5 *0101).

On to DSSLEGNYTLRVDCT, for which the pIC50 in assay [1] (read-out: DRB1 *1101) was less than 4.30; in assay [2] (read-out: DRBI *1302), 8.12; in assay [3] (read-out: DRBI *1501), 5.92; in assay [4] (read-out: DRB3 *0101), 6.24; in assay [6] (read-out: DRB5 *0101), 4.77.

For the compound HQAISPRTLNSPAIF, the pIC50 in assay [1] (read-out: DRB1 *1101) is 4.47; in [3] (read-out: DRBI *1501) it was 5.09; in assay [4] (read-out: DRB3 *0101), less than 4.08; in [5] (read-out: DRB4 *0101), 6.89; in assay [6] (read-out: DRB5 *0101), less than 3.70.

Regarding VGGVYLLPRRGPRIGV, the pIC50 in assay [1] (read-out: DRB1 *1101) is 7.06; in assay [2] (read-out: DRBI *1302), less than 4.81; in assay [3] (read-out: DRBI *1501), 8.38; in [4] (read-out: DRB3 *0101), 4.22; in assay [5] (read-out: DRB4 *0101) it was 4.72; in [6] (read-out: DRB5 *0101), 7.92.

As to TAWTIYRVEILRNFY, the pIC50 in assay [1] (read-out: DRB1 *1101) is 5.30; in [2] (read-out: DRBI *1302), 7.14; in assay [4] (read-out: DRB3 *0101), 4.84; in assay [5] (read-out: DRB4 *0101), 7.59; in assay [6] (read-out: DRB5 *0101) it was 6.29.

On to Ac-NPDAENWNSQFEILEDAA, for which the pIC50 in assay [1] (DRB1 *1101) is less than 4.48; in assay [2] (DRBI *1302) it was less than 5.00; in assay [3] (DRBI *1501) it was less than 5.00; in assay [4], 6.00; in assay [6] (DRB5 *0101) it was 4.30.

Take LGFFPDHQLDPAFRAN: the pIC50 in [4] (read-out: DRB3 *0101) was 5.84.

For the compound FAGIRRDGLLLRIVD, the pIC50 in assay [3] (read-out: DRBI *1501) is 7.55; in [4] (read-out: DRB3 *0101), 6.26.

With GGVLVNEILNHMKRA, the pIC50 in assay [1] (read-out: DRB1 *1101) was 6.59; in [2] (read-out: DRBI *1302), 7.31; in [3] (read-out: DRBI *1501) it was 6.24; in assay [4] (read-out: DRB3 *0101) it was 5.09; in assay [5] (read-out: DRB4 *0101), 8.24; in assay [6] (read-out: DRB5 *0101), 8.06.

Turning to YGRILHYLKAKEDSH [YORILHYLKAKBDSH], the pIC50 in assay [1] (DRB1 *1101) was 6.09; in [2] (DRBI *1302) it was 5.56; in assay [3] (DRBI *1501), 7.80; in [4], 3.34; in [5] (DRB4 *0101) it was 6.85; in assay [6] (DRB5 *0101), 7.41.

On to LPSWATEDTMTKIRE, for which the pIC50 was less than 4.18 in assay [1] (read-out: DRB1 *1101); less than 4.46 in assay [2] (read-out: DRBI *1302); less than 4.34 in assay [3] (read-out: DRBI *1501); 5.22 in assay [4] (read-out: DRB3 *0101); less than 4.95 in [5] (read-out: DRB4 *0101).

For LWQLNGRLEYCLKDR, the pIC50 in [4] was 4.54.

For VAQVRGGNIVFELANS, the pIC50 in assay [1] (read-out: DRB1 *1101) was less than 4.30; in [2] (read-out: DRBI *1302) it was 5.55; in [4] (read-out: DRB3 *0101), less than 4.66; in [5] (read-out: DRB4 *0101) it was 7.00; in [6] (read-out: DRB5 *0101), 4.19.

As for GAAVVHEIVRSFGTL, the pIC50 in assay [4] is 6.10.
